In test [1] the test system is PTEN. In words: Western blot of PTEN protein expression in Panc-1 cells. It is filed as cell-based, human. To be noted: 10 μM, 20 minutes to 24 hours. Here is the method:
Western Blot: Cells were harvested and lysed in cell lysis buffer on ice for 15 minutes and the lysate was centrifuged at 13,000 rpm at 4° C. for 10 minutes. The supernatant was transferred into a new tube for BCA protein quantification assay (Thermo Fisher Scientific) and the samples were normalized. 3× loading buffer (Cell Signaling) was added the protein sample and boiled for 5 minutes. The samples were used for SDS-PAGE analysis and transferred to nitrocellulose membrane. The membrane was blocked with 5% BSA at room temperature for 1 hour and incubated with primary antibody at 4° C. overnight. The membrane was washed with 1×TBST 5 minutes for 3 times and incubated with horseradish peroxidase-conjugated secondary antibody for 1 hour at room temperature. The protein was visualized by SuperSignal West Pico Stable Peroxide Solution (Thermo Fisher Scientific). The blot was visualized by chemiluminescence using a BioRad Versadoc Imaging System. In KRAS dependent tumors, c-Jun acts to suppress Phosphatase and tensin homolog (PTEN) expression at the promoter level and that suppression of PTEN expression is essential for anti-apoptosis and cellular transformation by oncogenic RAS. Thus, we investigated PTEN expression levels in response to BCN057. […] FIG. 4A is a western blot of Phospho-c-Jun (T-91/93). […] Phosphorylation of c-Jun at T-91/93 is known to induce apoptosis. […]
A general note: In western blotting, separated proteins are transferred to a membrane and probed.

For test [2], the system named is PD-1 expression on human T-lymphocytes. In words: Western blot of PD-1 on T-lymphocytes co-cultured with Panc-1 cells. To be noted: co-culture with Panc-1, 10 μM, sustained over 12 hours. It is filed as cell-based. Here is the method:
Cell lines and cell culture: Panc-1 cells were cultured in DMEM medium supplemented with 10% Fetal Bovine Serum and maintained at 37° C.5% CO2. Human Peripheral Blood Pan-T Cells were cultured in serum free T cells expansion media with 10 ng/ml of rhIL-2, T-cell activator and expanded as per the manufacturer instructions. Panc-1 cells and T-Cells were grown and expanded separately in T75 flasks. For co-culture experiments with Panc-1 cell, 2.5 million T-cells per well were plated in the well using a 6 well plate. 2.5 million Panc-1 Cells were plated in the thinsert which was placed into the well of the 6 well plate in order to have the cells physically separated but share media. The cells were incubated for 24 hours at 37° C., 5% CO2. At 24 hours the media was replaced with media containing vehicle, or 10 uM BCN057 and were incubated for the following timepoints: 1 hr, 6 hr, 12 hr, 24 hrs. The Panc-1 cells were removed by gently scraping the cells from the thinsert.
Western Blot: Cells were harvested and lysed in cell lysis buffer on ice for 15 minutes and the lysate was centrifuged at 13,000 rpm at 4° C. for 10 minutes. The supernatant was transferred into a new tube for BCA protein quantification assay (Thermo Fisher Scientific) and the samples were normalized. 3× loading buffer (Cell Signaling) was added the protein sample and boiled for 5 minutes. The samples were used for SDS-PAGE analysis and transferred to nitrocellulose membrane. The membrane was blocked with 5% BSA at room temperature for 1 hour and incubated with primary antibody at 4° C. overnight. The membrane was washed with 1×TBST 5 minutes for 3 times and incubated with horseradish peroxidase-conjugated secondary antibody for 1 hour at room temperature. The protein was visualized by SuperSignal West Pico Stable Peroxide Solution (Thermo Fisher Scientific). The blot was visualized by chemiluminescence using a BioRad Versadoc Imaging System.
BCN057 and Immune Checkpoint blockade: An emerging method of treatment for many forms of cancer, including PDAC, is immune checkpoint inhibitors. […]

SMILES strings stand for the structures.

Consider `COc1ccc2cc(-c3nc4ccc(C)cn4c3NCc3ccco3)c(=O)[nH]c2c1` [BCN057, 3-[(Furan-2-ylmethyl)-amino]-2-(7-methoxy-2-oxo-1,2-dihydro-quinolin-3-yl)-6-methyl-imidazo[1,2-a]pyridin-1-ium], for which the PTEN protein expression entry in test [1] is “increased expression up to 1 hr of PTEN protein”. In test [2], the “PD-1 expression on human T-lymphocytes” value was “decreased significantly within the first hour”.

The values above are taken from patent US20240376098A1, “METHODS OF TREATMENT USING BCN057, BCN077 AND ANALOGS” (BCN Biosciences L.L.C., priority 2021, published 2024).
